Data: patent EP2402322A1, “1,2,3,4-tetrahydroisoquinoline derivative and its use as orexin receptor antagonist” (Actelion Pharmaceuticals Ltd., priority 2010, dated 2012)
Where two headings read alike, the source gives them in different places.

Key:
[1] = rat; cited from earlier work
rat [2] = conditions: cited from earlier work
rat [3] = conditions: animal model of conditioned fear; cited from earlier work
human orexin-1 receptor = target: T1, human orexin-1 receptor (Homo sapiens, UniProt O43613); assay: Intracellular calcium measurements (FLIPR), CHO cells, 3 nM orexin-A as agonist; type: cell-based
T1 construct: expressed in transfected cells; host or cells: CHO cells (G418 selection)
T1 sequence (O43613 1-425): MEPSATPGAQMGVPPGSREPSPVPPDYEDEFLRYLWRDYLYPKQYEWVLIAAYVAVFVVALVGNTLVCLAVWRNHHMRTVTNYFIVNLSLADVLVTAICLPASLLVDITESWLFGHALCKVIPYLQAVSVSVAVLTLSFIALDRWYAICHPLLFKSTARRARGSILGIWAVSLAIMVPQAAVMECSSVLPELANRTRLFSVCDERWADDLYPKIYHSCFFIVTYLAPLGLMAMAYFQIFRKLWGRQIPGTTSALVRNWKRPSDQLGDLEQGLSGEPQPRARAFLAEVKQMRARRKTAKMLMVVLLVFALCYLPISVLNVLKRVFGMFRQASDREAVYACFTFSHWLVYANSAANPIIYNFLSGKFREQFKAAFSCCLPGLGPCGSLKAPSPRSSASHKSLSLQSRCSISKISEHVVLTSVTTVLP
Experimental: Chinese hamster ovary (CHO) cells expressing the human orexin-1 receptor and the human orexin-2 receptor, respectively, are grown in culture medium (Ham F-12 with L-Glutamine) containing 300 µg/ml G418, 100 U/ml penicillin, 100 µg/ml streptomycin and 10 % heat inactivated fetal calf serum (FCS). The cells are seeded at 20'000 cells / well into 384-well black clear bottom sterile plates (Greiner). The seeded plates are incubated overnight at 37°C in 5% CO2.
Human orexin-A as an agonist is prepared as 1 mM stock solution in MeOH: water (1:1), diluted in HBSS containing 0.1 % bovine serum albumin (BSA), NaHCO3: 0.375g/l and 20 mM HEPES for use in the assay at a final concentration of 3 nM. […]
Within the Fluorescent Imaging Plate Reader (FLIPR Tetra, Molecular Devices), antagonists are added to the plate in a volume of 10 µl/well, incubated for 10 min and finally 10 µl/well of agonist is added. Fluorescence is measured for each well at 1 second intervals, and the height of each fluorescence peak is compared to the height of the fluorescence peak induced by 3 nM orexin-A with vehicle in place of antagonist. […] The calculated IC50 values may fluctuate depending on the daily cellular assay performance. […]

human orexin-2 receptor = target: T2, human orexin-2 receptor (Homo sapiens, UniProt O43614); assay: as above; type: cell-based; conditions: geometric mean; antagonism of 3 nM orexin-A
T2 construct: expressed in transfected cells; host or cells: CHO cells (G418 selection)
T2 sequence (O43614 1-444): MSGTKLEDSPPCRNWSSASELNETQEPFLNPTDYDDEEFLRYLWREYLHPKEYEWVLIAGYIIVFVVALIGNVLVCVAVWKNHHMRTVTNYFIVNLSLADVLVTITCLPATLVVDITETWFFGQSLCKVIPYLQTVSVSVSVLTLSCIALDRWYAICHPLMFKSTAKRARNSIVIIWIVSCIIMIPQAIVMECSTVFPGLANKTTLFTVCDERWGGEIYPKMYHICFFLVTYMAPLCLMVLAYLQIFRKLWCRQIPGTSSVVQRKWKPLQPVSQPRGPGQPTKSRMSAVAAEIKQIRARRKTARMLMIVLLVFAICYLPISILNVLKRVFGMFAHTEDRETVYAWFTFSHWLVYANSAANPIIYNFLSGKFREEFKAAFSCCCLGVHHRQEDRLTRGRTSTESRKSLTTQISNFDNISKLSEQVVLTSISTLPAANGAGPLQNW
Experimental: Fluorescence is measured for each well at 1 second intervals, and the height of each fluorescence peak is compared to the height of the fluorescence peak induced by 3 nM orexin-A with vehicle in place of antagonist. […] Optimized conditions were achieved by adjustment of pipetting speed and cell splitting regime. The calculated IC50 values may fluctuate depending on the daily cellular assay performance. Fluctuations of this kind are known to those skilled in the art.

[4] = Measurement of brain and systemic concentration after oral administration; type: in vivo, male wistar rats; conditions: rat; for concentration at 3 h: 3 h after oral administration (100 mg/kg), n = 3, male wistar rats, 100% PEG 400; for capacity to cross the blood-brain barrier: summary statement
Experimental: The compounds are formulated in 100% PEG 400. Samples are collected in the same animal at the same time point (+/- 5 min). Blood is sampled from the vena cava caudalis into containers with EDTA as anticoagulant and centrifuged to yield plasma. Brain is sampled after cardiac perfusion of 10 mL NaCl 0.9% and homogenized into one volume of cold phosphate buffer (pH 7.4). All samples are extracted with MeOH and analyzed by LC-MS/MS. Concentrations are determined with the help of calibration curves.

F344 rats = assay: Fear-potentiated startle paradigm; type: in vivo; conditions: 300 mg/kg oral gavage, 1 h before test, n=16 F344 rats; Figure 2
Text: The fear-potentiated startle (FPS) paradigm is a model of conditioned fear in rodents that relates to emotional states of fear and anxiety. Rats can be trained to associate an initially neutral, soon-to-be conditioned stimulus (CS: e.g. light) with an aversive, unconditioned stimulus (US; e.g. foot shook). When tested after training for their startle reflex response to brief (ms) noise bursts in the absence vs. the presence of the CS (e.g. light), rats generally show greater startle amplitudes during the presence of the CS which now serves as a predictor of shock. […] This model translates to humans where a similar training procedure can be implemented and a FPS response can also be evoked in the presence of a shock predicting cue. […] The current paradigm represents a translational animal model that is predictive of anxiolytic activity of a drug.
Method: Sixteen adult male F344 rats were trained for two consecutive days (conditioning phase) to associate a light-stimulus with a foot shock (0.4 mA). On the following day they were tested for their response to startle eliciting noise stimuli which were delivered randomly under light (cue) or dark (no cue) conditions. […] Average startle responses to noise stimuli of 90, 100 and 110dB intensity under light and dark conditions during the test day were measured and electrically transduced into a millivolt signal. […]

Wistar rats = assay: EEG, EMG and behavioural indices of alertness recorded by radiotelemetry (absence of sleep-promoting effects); type: in vivo
Experimental: EEG and EMG signals were measured by telemetry using TL11 M2-F20-EET miniature radiotelemetric implants (Data Science Int.) with two pairs of differential leads.
Surgical implantation was performed under general anesthesia with Ketamin/Xylazln, for cranial placement of one differential pair of EEG electrodes and one pair of EMG leads inserted in either side of the muscles of the neck. After surgery, rats recovered in a thermoregulated chamber and received analgesic treatment with subcutaneous buprenorphine twice a day for 2 d. They were then housed individually and allowed to recover for a minimum of 2 weeks. Thereafter, rats—in their home cage—were placed in a ventilate sound-attenuating box, on a 12-h light / 12-h dark cycle, for acclimatization before continuous EEG / EMG recordings started. The telemetric technology that we used in this study allows accurate and stress-free acquisition of biosignals in rats placed In their familiar home cage environment, with no recording leads restricting their movements. Variables analyzed included four different stages of vigilance and sleep, spontaneous activity in the home cage and body temperature. Sleep and wake stages were evaluated using a rodent scoring software (Somnologica Science) directly processing electrical biosignals on 10 s contiguous epochs. The scoring is based on frequency estimation for EEG and amplitude discrimination for EMG and locomotor activity. Using these measurements, the software determines the probability that all components within each epoch best represent active waking (AW), quiet waking (QW), non-REM-sleep (NREM) or REM-sleep (REM). The percentage of total time spent in AW, QW. NREM- and REM-sleep was calculated per 12 h light or dark period. The latency to the onset of the first significant NREM- and REM-sleep episodes and the frequency and duration of those episodes were also calculated. […] All variables were subsequently recorded for 12 h following administration of the orexin receptor antagonist.

Male Sprague Dawley rats = assay: Acquisition of morphine induced locomotor sensitization; type: in vivo; conditions: 300 mg/kg p.o. 2 h before each morphine injection (10 mg/kg i.p.), 4 pairings; Figure 1
Text: Method: Although, in essence, locomotor sensitization is a non-associative learning process, the context plays a major role in the development and expression of locomotor sensitization. Thus, drug injections are usually administered intermittently in a context different from the home cage, such as an open field, where locomotor activity can be quantitatively measured. Drugs are regularly administered in high concentrations and via routes of administration with a fast onset of action (such as intraperitoneal or intravenous injections). In order to induce robust locomotor sensitization drugs are administered typically once a day over a period of several days. Once established in such a way, locomotor sensitization can be observed in response to a new drug challenge over a period of up to several months.
Method: Male Sprague Dawley rats are injected with morphine (10 mg/kg i.p.) and placed immediately afterwards in an open field (45 x 40 x 33 cm) for 45 min. Total distance moved (TDM) of the animal is recorded automatically via video-tracking. This procedure is repeated 4 times, every 2nd day, so that each animal received a total number of 4 pairings of morphine injection within the context of the open field.

[5] = brain, read-out: concentration in brain [B]
[6] = plasma, read-out: concentration in plasma [P]
[7] = 300 mg/kg po, Wistar rats, 12 h following administration

SMILES | crossing of the blood-brain barrier [1] | systemic bioavailability [1] | alertness (active wake and locomotion) (rat [2]) | time spent in both REM and NREM sleep (rat [2]) | activity in the rat fear potentiated startle paradigm (rat [3]) | IC50 (human orexin-1 receptor; geometric mean, antagonism of 3 nM orexin-A, read-out: IC50 value on the orexin-1 receptor) | IC50 (human orexin-2 receptor) | concentration at 3 h [4, 5] | concentration at 3 h [4, 6] | capacity to cross the blood-brain barrier [4] | fear-potentiated startle response under light (cue) conditions as compared to vehicle (F344 rats) | IC50 (human orexin-1 receptor) | effect on NREM sleep compared to vehicle controls (Wistar rats; [7]) | effect on REM sleep compared to vehicle controls (Wistar rats; [7]) | effect on active wake compared to vehicle controls (Wistar rats; [7]) | effect on home cage activity compared to vehicle controls (Wistar rats; [7]) | effect in a model relevant to sleep induction (Wistar rats; at relevant dose, summary statement) | acquisition of locomotor sensitization to morphine (total distance moved) (Male Sprague Dawley rats)
CNC(=O)[C@@H](c1ccccc1)N1CCc2cc(OC)c(OC)cc2[C@@H]1CCc1ccc(C(F)(F)F)cc1 [(2R)-2-{(1S)-6,7-dimethoxy-1-[2-(4-trifluoromethyl-phenyl)-ethyl]-3,4-dihydro-1H-isoquinolin-2-yl}-N-methyl-2-phenyl-acetamide] | cross the blood-brain barrier | good | decrease alertness | dose-dependently increase | active |  |  |  |  |  |  |  |  |  |  |  |  | 
CCCCNC(=O)[C@@H](c1ccccc1)N1CCc2cc(OC)c(OC)cc2[C@@H]1Cc1ccc(OC)c(OC)c1 [Reference Compound 1, (R)-2-[(S)-1-(3,4-Dimethoxy-benzyl)-6,7-dimethoxy-3,4-dihydro-1H-isoquinolin-2-yl]-N-butyl-2-phenyl-acetamide, reference compound] |  |  |  |  |  | 12 nM | > 300 nM | 530 ng/g | 850 ng/mL | only moderate capacity | no effect |  |  |  |  |  |  | 
COc1ccc(C[C@H]2c3cc(OC)c(OC)cc3CCN2[C@@H](C(=O)NC(C)C)c2ccccc2)cc1OC [COMPOUND, (R)-2-[(S)-1-(3,4-dimethoxy-benzyl)-6,7-dimethoxy-3,4-dihydro-1H-isoquinolin-2-yl]-N-isopropyl-2-phenyl-acetamide] |  |  |  |  |  |  |  | 880 ng/g | 1460 ng/mL | crossed the blood-brain barrier | significantly reduced | 27 nM | -2% | +1% | -4% | -3% | no effect | significantly reduced
